Patent US7632633B2, “Method for determining the degree of protein oxidation in a skin sample using oxidized protein in stratum corneum as an indicator” (Shiseido Company, Ltd., priority 2004, dated 2009)

Tests used:
[1] = test system: stratum corneum of black pig skin; assay: Stratum corneum water holding capacity of black pig skin after oxidation treatment (SKINCON-200); details: 1 hour
Procedure: Black pig skin was subjected to oxidation treatment for 1 hour with a 10 mM acrolein solution. After rinsing with water for 1 hour, the water was carefully wiped off, and the change in the water content of the stratum corneum over time was measured with the SKINCON-200.
Black pig skin was treated for 1 hour with 20 mM hypochlorous acid. After rinsing with water for 1 hour, the water was carefully wiped off, and the change in the water content of the stratum corneum over time was measured with the SKINCON-200.

[2] = test system: stratum corneum of porcine skin; assay: Stratum corneum transparency of dry pig skin after oxidation treatment (observation); details: dry pig skin immersed in acrolein 0, 1, 10 and 100 mM for 3 hours; dried (humidity 50%, 25° C.), observed over 24 hours
Procedure: Dry pig skin (Alloask, Taiho Pharmaceutical) was immersed in water for 3 days. The pig skin was subjected to oxidation treatment by immersing in an acrolein solution (Tokyo Chemical Industry) at 0, 1, 10 and 100 mM for 3 hours. Acrolein oxidizes by acting on protein resulting in the formation of an aldehyde-protein adduct. Following oxidation treatment, the pig skin was rinsed with water for 1 hour. After rinsing, the pig skin was initially dried (humidity: 50%, temperature: 25° C.) in a Petri dish with the stratum corneum side facing upward followed by observation of the dried pig skin over the course of 24 hours.

[3] = test system: stratum corneum of porcine skin; assay: Stratum corneum water holding capacity of dry pig skin after oxidation treatment (SKINCON-200); details: dry pig skin immersed in acrolein 0, 1, 10 and 100 mM for 3 hours; dried at humidity 50%, temperature 250° C., measured 15 minutes later
Procedure: Dry pig skin (Alloask, Taiho Pharmaceutical) was immersed in water for 3 days. The pig skin was removed and subjected to oxidation treatment by immersing in an acrolein solution (Tokyo Chemical Industry) at 0, 1, 10 and 100 mM for 3 hours. Acrolein oxidizes by acting on protein resulting in the formation of an aldehyde-protein adduct. Following oxidation treatment, the pig skin was rinsed with water for 1 hour. After rinsing, the pig skin was initially dried (humidity: 50%, temperature: […]) in a Petri dish with the stratum corneum side facing upward followed 15 minutes later by measuring the moisture content of the stratum corneum with the SKINCON-200 (IBS).
The results of measuring the moisture content of the stratum corneum are shown in FIG. 1 as skin conductance values.

[4] = test system: stratum corneum of human forearm skin; assay: Stratum corneum water holding capacity of human forearm skin after occlusion treatment (SKINCON-200); assay type: in vivo; details: occlusion 1 hour, 20 mM hypochlorous acid vs PBS
Procedure: Human forearm skin was subjected to occlusion treatment for 1 hour with PBS or 20 mM hypochlorous acid. After rinsing with water for 1 hour, the water was carefully wiped off, and the change in the water content of the stratum corneum over time was measured with the SKINCON-200.

Row | SMILES | change in the water content of the stratum corneum over time (ability to hold water) ([1]; 10 mM acrolein solution) | transparency of the stratum corneum [2] | moisture content of the stratum corneum (skin conductance) [3] | change in the water content of the stratum corneum over time (ability to hold water) ([1]; 20 mM hypochlorous acid) | change in the water content of the stratum corneum over time (water holding capacity) [4]
1 | C=CC=O [acrolein] | A decrease was observed in the ability of stratum corneum of the pig skin to hold water | transparency decreased concentration-dependently | decrease in moisture content was observed that was dependent on the concentration |  | 
2 | OCl [hypochlorous acid] |  |  |  | A decrease was observed in the ability of stratum corneum of the pig skin to hold water | decrease in water holding capacity
